# Target: T1, human TGR5 (Homo sapiens, UniProt Q8TDU6)
# T1 construct: expressed in transfected cells; host or cells: HEK293
# T1 sequence (Q8TDU6 1-330): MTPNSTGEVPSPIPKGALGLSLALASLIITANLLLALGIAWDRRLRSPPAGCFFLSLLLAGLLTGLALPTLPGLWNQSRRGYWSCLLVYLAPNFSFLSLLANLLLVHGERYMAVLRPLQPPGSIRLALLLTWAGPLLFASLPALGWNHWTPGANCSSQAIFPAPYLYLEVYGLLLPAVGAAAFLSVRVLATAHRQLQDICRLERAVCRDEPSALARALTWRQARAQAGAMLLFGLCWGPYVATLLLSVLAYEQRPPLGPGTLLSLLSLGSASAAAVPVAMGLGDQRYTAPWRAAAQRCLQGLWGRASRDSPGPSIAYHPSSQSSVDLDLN
# Experiment: Cell-based TGR5 assay (cAMP generation, HTRF)
# Details: HEK293 cells stably transfected with human TGR5; cAMP by HTRF; 30 minutes at 37° C.; read-out: pEC50 Human TGR5 (converted)
# In short: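 First, compounds in 3-fold serial dilution were placed in HBSS with 10 mM HEPES pH 7.4 and 0.5 mM IBMX. Next, human TGR5-expressing HEK293 cells were added and incubated 30 min at 37° C. Finally, cAMP was detected by HTRF and pEC50 derived by logistic fitting.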
row,SMILES,EC50
1,"CCN(C[C@H](O)[C@@H](O)[C@H](O)[C@H](O)CO)C(=O)CCCSc1ccc(Cl)c(COC2(c3cnccc3-c3ccccc3OC3CC3)CC2)c1 [Compound I-659, 4-{[4-chloro-3-({1-[4-(2-cyclopropoxyphenyl)pyridin-3-yl]cyclopropoxy}methyl)phenyl]sulfanyl}-N-ethyl-N-[(2S,3R,4R,5R)-2,3,4,5,6-pentahydroxyhexyl]butanamide]",< 100 nM
2,"CC(CCCC(=O)N[C@@H](CO)[C@@H](O)[C@H](O)[C@H](O)CO)c1ccc(Cl)c(CNC2(c3cnccc3-c3ccccc3OC3CC3)CC2)c1 (stereo partly drawn) [Compound I-313, 5-{4-chloro-3-[({1-[4-(2-cyclopropoxyphenyl)pyridin-3-yl]cyclopropyl}amino)methyl]phenyl}-N-[(2S,3R,4S,5R)-1,3,4,5,6-pentahydroxyhexan-2-yl]hexanamide]",< 100 nM
3,"Cc1ccc(C(C)CCCC(=O)N(CCCS(C)(=O)=O)C[C@H](O)[C@@H](O)[C@H](O)[C@H](O)CO)cc1CNC1(c2cnccc2-c2ccccc2OC2CC2)CC1 (stereo partly drawn) [Compound I-370, 5-{3-[({1-[4-(2-cyclopropoxyphenyl)pyridin-3-yl]cyclopropyl}amino)methyl]-4-methylphenyl}-N-(3-methanesulfonylpropyl)-N-[(2S,3R,4R,5R)-2,3,4,5,6-pentahydroxyhexyl]hexanamide]",< 100 nM
4,"CCS(=O)(=O)CCN(CCCCC(C)c1ccc(Cl)c(CNC2(c3cnccc3-c3ccccc3OC3CC3)CC2)c1)C(=O)[C@@H](O)[C@@H](O)[C@H](O)[C@@H](O)CO (stereo partly drawn) [Compound I-296, (2S,3S,4R,5S)-N-(5-{4-chloro-3-[({1-[4-(2-cyclopropoxyphenyl)pyridin-3-yl]cyclopropyl}amino)methyl]phenyl}hexyl)-N-[2-(ethanesulfonyl)ethyl]-2,3,4,5,6-pentahydroxyhexanamide]",< 100 nM
5,"O=C(NCCCCc1cc(Cl)c(COC2(c3cnccc3-c3ccccc3OC3CC3)CC2)cc1Cl)[C@@H](O)[C@@H](O)[C@H](O)[C@@H](O)CO (stereo in doubt) [Compound I-185, (2S,3S,4R,5S)-N-{4-[2,5-dichloro-4-({1-[4-(2-cyclopropoxyphenyl)pyridin-3-yl]cyclopropoxy}methyl)phenyl]butyl}-2,3,4,5,6-pentahydroxyhexanamide]",< 100 nM
6,"O=C(NC[C@H](O)[C@@H](O)[C@H](O)[C@H](O)CO)NC1CC2(C1)CN(S(=O)(=O)c1ccc(Cl)c(COC3(c4cnccc4-c4ccccc4OC4CC4)CC3)c1)C2 [Compound I-430, 1-{2-[4-chloro-3-({1-[4-(2-cyclopropoxyphenyl)pyridin-3-yl]cyclopropoxy}methyl)benzenesulfonyl]-2-azaspiro[3.3]heptan-6-yl}-3-[(2S,3R,4R,5R)-2,3,4,5,6-pentahydroxyhexyl]urea]",126 to 1000 nM
7,"CN(CCOCCNC(=O)N[C@@H](CO)[C@@H](O)[C@H](O)[C@H](O)CO)S(=O)(=O)c1ccc(Cl)c(COC2(c3cnccc3-c3ccccc3OC3CC3)CC2)c1 (stereo in doubt) [Compound I-406, 1-(2-{2-[N-methyl4-chloro-3-({1-[4-(2-cyclopropoxyphenyl)pyridin-3-yl]cyclopropoxy}methyl)benzenesulfonamido]ethoxy}ethyl)-3-[(2S,3R,4S,5R)-1,3,4,5,6-pentahydroxyhexan-2-yl]urea]",< 100 nM
8,"CN(CCCCNC(=O)[C@@H](O)[C@@H](O)[C@H](O)[C@@H](O)CO)S(=O)(=O)c1ccc(Cl)c(COC2(c3cnccc3-c3ccccc3OC3CC3)CC2)c1 [Compound I-458, (2S,3S,4R,5S)-2,3,4,5,6-pentahydroxy-N-{4-[N-methyl4-chloro-3-({1-[4-(2-cyclopropoxyphenyl)pyridin-3-yl]cyclopropoxy}methyl)benzenesulfonamido]butyl}hexanamide]",< 100 nM
9,Cc1ccc(CCCCCNC(=O)NC[C@H](O)[C@@H](O)[C@H](O)[C@H](O)CO)nc1CNC1(c2cnccc2-c2ccccc2OC2CC2)CC1 [Compound I-707],1260 to 10000 nM
10,"O=C(NC[C@H](O)[C@@H](O)[C@H](O)[C@H](O)CO)N[C@H]1CC[C@H](NS(=O)(=O)c2ccc(Cl)c(COC3(c4cnccc4-c4ccccc4OC4CC4)CC3)c2)CC1 [Compound I-418, 3-[(2S,3R,4R,5R)-2,3,4,5,6-pentahydroxyhexyl]-1-[(1r,4r)-4-[4-chloro-3-({l-[4-(2-cyclopropoxyphenyl)pyridin-3-yl]cyclopropoxy}methyl)benzenesulfonamido]cyclohexyl]urea]",< 100 nM
11,"CN(CCOCCNC(=O)NC[C@H](O)[C@@H](O)[C@H](O)[C@H](O)CO)S(=O)(=O)c1ccc(Cl)c(COC2(c3cnccc3-c3ccccc3OC3CC3)CC2)c1 (stereo in doubt) [Compound I-404, 1-(2-{2-[N-methyl4-chloro-3-({1-[4-(2-cyclopropoxyphenyl)pyridin-3-yl]cyclopropoxy}methyl)benzenesulfonamido]ethoxy}ethyl)-3-[(2S,3R,4R,5R)-2,3,4,5,6-pentahydroxyhexyl]urea]",< 100 nM
12,"CC(CO)Oc1ccccc1-c1ccncc1C1(NCc2cc(Cl)ccc2Cl)CC1 (stereo not shown) [Compound I-20, 2-{2-[3-(1-{[(2,5-dichlorophenyl)methyl]amino}cyclopropyl)pyridin-4-yl]phenoxy}propan-1-ol]",126 to 1000 nM
13,"O=C(NCCCCCc1cc(Cl)c(COC2(c3cnccc3-c3ccccc3OC3CC3)CC2)cc1Cl)NC[C@H](O)[C@@H](O)[C@H](O)[C@H](O)CO (stereo in doubt) [Compound I-225, 1-{5-[2,5-dichloro-4-({1-[4-(2-cyclopropoxyphenyl)pyridin-3-yl]cyclopropoxy}methyl)phenyl]pentyl}-3-[(2S,3R,4R,5R)-2,3,4,5,6-pentahydroxyhexyl]urea]",< 100 nM
14,"Cc1cc(COC2(c3cnccc3-c3ccccc3OC3CC3)CC2)c(Cl)cc1CCCCNC(=O)NC[C@H](O)[C@@H](O)[C@H](O)[C@H](O)CO [Compound I-65, 1-[4-[5-chloro-4-([1-[4-(2-cyclopropoxyphenyl)pyridin-3-yl]cyclopropoxy]methyl)-2-methylphenyl]butyl]-3-[(2S,3R,4R,5R)-2,3,4,5,6-pentahydroxyhexyl]urea]",< 100 nM
15,"O=C(CCCSc1ccc(Cl)c(COC2(c3cnccc3-c3ccccc3OC3CC3)CC2)c1)N(CCCCCO)C[C@H](O)[C@@H](O)[C@H](O)[C@H](O)CO [Compound I-684, 4-f{[4-chloro-3-({1-[4-(2-cyclopropoxyphenyl)pyridin-3-yl]cyclopropoxy}methyl)phenyl]sulfanyl}-N-(5-hydroxypentyl)-N-[(2S,3R,4R,5R)-2,3,4,5,6-pentahydroxyhexyl]butanamide]",126 to 1000 nM
16,"Cc1ccc(C(F)(F)F)cc1CNC1(c2cnccc2-c2ccccc2OC2CC2)CC1 [Compound I-37, 1-[4-(2-cyclopropoxyphenyl)pyridin-3-yl]-N-{[2-methyl-5-(trifluoromethyl)phenyl]methyl}cyclopropan-1-amine]",< 100 nM
17,"Oc1cc(Cl)c(CNC2(c3cnccc3-c3ccccc3OC3CC3)CC2)cc1Cl [Compound I-700, 2,5-dichloro-4-[([1-[4-(2-cyclopropoxyphenyl)pyridin-3-yl]cyclopropyl]amino)methyl]phenol]",< 100 nM
18,"CN(C[C@H](O)[C@@H](O)[C@H](O)[C@H](O)CO)C(=O)CCCCc1cc(Cl)c(CNC2(c3cnccc3-c3ccccc3OC3CC3)CC2)cc1Cl [Compound I-137, 5-{2,5-dichloro-4-[({1-[4-(2-cyclopropoxyphenyl)pyridin-3-yl]cyclopropyl}amino)methyl]phenyl}-N-methyl-N-[(2S,3R,4R,5R)-2,3,4,5,6-pentahydroxyhexyl]pentanamide]",< 100 nM
19,"CCOC(=O)NCCCN(CCCSc1ccc(Cl)c(COC2(c3cnccc3-c3ccccc3OC3CC3)CC2)c1)C(=O)[C@@H](O)[C@@H](O)[C@H](O)[C@@H](O)CO [Compound I-596, ethyl N-{3-[(2S,3S,4R,5S)-N-(3-{[4-chloro-3-({1-[4-(2-cyclopropoxyphenyl)pyridin-3-yl]cyclopropoxy}methyl)phenyl]sulfanyl}propyl)-2,3,4,5,6-pentahydroxyhexanamido]propyl}carbamate]",126 to 1000 nM
20,"CS(=O)(=O)CC(=O)N(CCCCc1cc(Cl)c(COC2(c3cnccc3-c3ccccc3OC3CC3)CC2)cc1Cl)C[C@H](O)[C@@H](O)[C@H](O)[C@H](O)CO [Compound I-202, N-{4-[2,5-dichloro-4-({1-[4-(2-cyclopropoxyphenyl)pyridin-3-yl]cyclopropoxy}methyl)phenyl]butyl}-2-methanesulfonyl-N-[(2S,3R,4R,5R)-2,3,4,5,6-pentahydroxyhexyl]acetamide]",< 100 nM
21,"CC(CCCN(CC1CCOCC1)C(=O)[C@@H](O)[C@@H](O)[C@H](O)[C@@H](O)CO)c1ccc(Cl)c(CNC2(c3cnccc3-c3ccccc3OC3CC3)CC2)c1 (stereo partly drawn) [Compound I-287, (2S,3S,4R,5S)-N-(4-{4-chloro-3-[({1-[4-(2-cyclopropoxyphenyl)pyridin-3-yl]cyclopropyl}amino)methyl]phenyl}pentyl)-2,3,4,5,6-pentahydroxy-N-(oxan-4-ylmethyl)hexanamide]",< 100 nM
22,"CC(CCCC(=O)N(CCCO)C[C@H](O)[C@@H](O)[C@H](O)[C@H](O)CO)c1ccc(Cl)c(CNC2(c3cnccc3-c3ccccc3OC3CC3)CC2)c1 (stereo partly drawn) [Compound I-334, 5-{4-chloro-3-[({1-[4-(2-cyclopropoxyphenyl)pyridin-3-yl]cyclopropyl}amino)methyl]phenyl}-N-(3-hydroxypropyl)-N-[(2S,3R,4R,5R)-2,3,4,5,6-pentahydroxyhexyl]hexanamide]",< 100 nM

# Reference: patent publication US12084472B2 (Ardelyx, Inc., priority 2015, dated 2024)
